Assay [1] addresses T1, recombinant full-length (fl)Tau aggregates (longest isoform of human Tau, 2N4R; 441 amino acids) (Homo sapiens, UniProt P10636).
T1 construct: 35 μM of recombinant full-length (fl)Tau in PBS were aggregated for 24 hours; made in house; host or cells: bacteria
Description: Full-length Tau (flTau) disaggregation assay by Thioflavin T (ThT). Type of assay: biochemical. Conditions: ThT fluorescence; 2 μM flTau aggregates, 30 minutes at RT. As for the experimental part:
Full-Length Tau (flTau) Disaggregation Assay by Thioflavin T (ThT)
The longest isoform of human Tau (2N4R; 441 amino acids) was expressed in bacteria and purified. For the Tau disaggregation assay by ThT, 35 μM of recombinant full-length (fl)Tau in PBS were aggregated for 24 hours at 37° C. in presence of 50 μM of heparin (Sigma-Aldrich) and 10 mM of DTT (Sigma-Aldrich) under shaking at 750 RPM. Compounds were dissolved in anhydrous dimethyl sulfoxide (DMSO, Sigma-Aldrich) to reach a concentration of 10 mM. flTau aggregates and serial dilutions of compounds were mixed together in PBS (volume 50 μL) to a final concentration of 2 μM of flTau aggregates and from 160 to 0.04 μM of compounds. The mixture was incubated for 30 minutes at room temperature (RT), then 40 μL of this mixture were transferred into a black 384-well plate assay (Perkin-Elmer) and mixed with 10 μL of 100 μM ThT in 250 mM glycine (both from Sigma-Aldrich) in PBS. Fluorescence (relative fluorescence units; RFU) was measured in monoplicate or duplicate on a Tecan reader (excitation: 440 nm; emission: 485 nm). Percentage of flTau disaggregation was then calculated and the half maximal effective concentration (EC50) was determined using GraphPad Prism version 5 (GraphPad Software) assuming a one-binding site fitting model.

In assay [2] the target is T2, Aggregated human Tau in human neuroblastoma cell line overexpressing full-length human Tau P301L (Homo sapiens, UniProt P10636, P618L).
T2 construct: overexpressing the full-length form of human Tau carrying the P301L mutation; expressed in transfected cells; host or cells: human neuroblastoma cell line (G418 selection)
T2 sequence (P10636 1-441 isoform P10636-8 P301L): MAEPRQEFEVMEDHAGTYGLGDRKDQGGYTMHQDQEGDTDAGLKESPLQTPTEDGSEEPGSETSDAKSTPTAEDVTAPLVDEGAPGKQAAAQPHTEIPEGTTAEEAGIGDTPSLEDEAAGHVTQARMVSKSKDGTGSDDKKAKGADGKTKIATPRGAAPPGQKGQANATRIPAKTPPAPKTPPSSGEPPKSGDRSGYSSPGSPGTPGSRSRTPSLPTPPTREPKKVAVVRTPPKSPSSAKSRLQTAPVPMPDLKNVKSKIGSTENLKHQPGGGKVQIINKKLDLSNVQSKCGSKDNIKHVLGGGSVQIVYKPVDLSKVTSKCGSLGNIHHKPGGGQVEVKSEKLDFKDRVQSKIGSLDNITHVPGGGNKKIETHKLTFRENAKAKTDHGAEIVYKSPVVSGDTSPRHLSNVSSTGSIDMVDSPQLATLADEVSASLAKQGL
Kind of assay: Reduction of intracellular Tau aggregation (AlphaLISA, aggregated Tau normalized to total Tau). Type of assay: cell-based. Conditions: compound at 5 μM, 24 h, relative to DMSO-treated cells. As for the experimental part: Reduction of Intracellular Tau Aggregation
A human neuroblastoma cell line overexpressing the full-length form of human Tau carrying the P301L mutation was cultured in complete medium [DMEM-F12 4.5 g/L Glutamax (Invitrogen), 15% FBS (Biochrom), 1% Peni/Strep (Invitrogen) supplemented with 2.5 μg/ml of G418 (Sigma-Aldrich) selection antibiotic]. The day before the experiment 5×10^5 cells/well were plated in a 6 well plate in 3 mL of complete medium. The next day, cells were incubated with DMSO or a compound of the present invention at 5 μM for additional 24 h at 37° C. After incubation, cells were trypsinized, resupsended in 100 μl of homogenization buffer [25 mM Tris-HCl pH 7.4, 150 mM NaCl, 1 mM EDTA, 1 mM EGTA containing phosphatase inhibitors (30 mM NaF, 0.2 mM Na3VO4, 1 nM okadaic acid, 1 mM PMSF, 5 mM Na4P2O7) and protease inhibitor cocktail (Complete™, Roche)], and then physically lysed with three rapid cycles of freezing and thawing. Samples were then directly tested in the AlphaLISA assay.
Phosphorylated, aggregated, and total Tau were quantified by AlphaLisa using the following antibody pairs: • HT7-Acceptor beads+biotin (BT)-Tau13-Donor beads: Total Tau • HT7-Acceptor beads+biotin (BT)-HT7-Donor beads: Aggregated human Tau
The Tau13 (Abcam) was biotinylated using EZ-Link® NHS-PEO Solid Phase biotinylation kit (Thermo Scientific), while the HT7-biotin was from a commercial source (Thermo Scientific).
For each antibody pairs the concentration of acceptor beads and biotinylated antibodies was optimized. All samples were first tested in a dilution series in PBS in order to identify the linear range and optimal dilution for each sample and assay. For the final protocol, the following reagents were added in a 384-well white OptiPlate (PerkinElmer): • 5 μL of test diluted sample • 20 μL of the mixture biotin-mAb acceptor beads at the following final concentrations: • HT7-BT at 1.25 nM in combination with HT7-Acc beads at 10 μg/ml • Tau13-BT at 5 nM in combination with HT7-Acc beads at 2.5 μg/ml
After incubation of this mixture at room temperature for 1 h, 25 μL of Streptavidin Donor beads (Perkin Elmer) at 25 μg/mL were added in the dark. Plates were analyzed after 30 min incubation using the EnSpire Alpha instrument and EnSpire Workstation version 3.00. Data for aggregated Tau were normalized to total Tau and then expressed as percentage of the DMSO-treated cells.

For assay [3], the target named is T3, Tau K18 fragment aggregates (amino acids 244 to 372 of human Tau441) (Homo sapiens, UniProt P10636).
T3 construct: encompassing amino acids 244 to 372 of the longest isoform (2N4R) of human Tau441; host or cells: bacteria
T3 sequence (P10636 561-689): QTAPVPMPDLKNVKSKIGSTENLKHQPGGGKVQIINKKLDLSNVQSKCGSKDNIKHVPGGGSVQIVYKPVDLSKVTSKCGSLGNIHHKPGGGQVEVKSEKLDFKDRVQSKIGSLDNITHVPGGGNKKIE
Description: Tau K18 disaggregation assay by ThT. Type of assay: biochemical. Particulars: ThT fluorescence; 2 μM K18 aggregates, 30 minutes at RT. The method, then:
Tau K18 Disaggregation Assay by ThT
The Tau K18 fragment, encompassing amino acids 244 to 372 of the longest isoform (2N4R) of human Tau441, was expressed in bacteria and purified or bought from SignalChem. For the K18 disaggregation assay by ThT, 35 μM of recombinant K18 in PBS were aggregated for 24 hours at 37° C. in presence of 50 μM of heparin (Sigma-Aldrich) and 10 mM of DTT (Sigma-Aldrich) under shaking at 750 RPM. Compounds were dissolved in anhydrous dimethyl sulfoxide (DMSO, Sigma-Aldrich) to reach a concentration of 10 mM. K18 aggregates and serial dilutions of compounds were mixed together in PBS (volume 50 μL) to a final concentration of 2 μM of K18 aggregates and from 160 to 0.04 μM of compounds. The mixture was incubated for 30 minutes at room temperature (RT), then 40 μL of this mixture were transferred into a black 384-well plate assay (Perkin-Elmer) and mixed with 10 μL of 100 μM ThT in 250 mM glycine (both from Sigma-Aldrich) in PBS. Fluorescence (relative fluorescence units; RFU) was measured in monoplicate or duplicate on a Tecan reader (excitation: 440 nm; emission: 485 nm). Percentage of K18 disaggregation was then calculated and half maximal effective concentration (E050) was determined using GraphPad Prism version 5 (GraphPad Software) assuming a one-binding site fitting model.

Assay [4] deals with T4, monomeric flTau (human Tau 2N4R; 441 amino acids) (Homo sapiens, UniProt P10636).
T4 construct: purchased Biotechne (USA); host or cells: E coli
T4 sequence (P10636 1-441 isoform P10636-8): as the sequence (P10636 1-441 isoform P10636-8 P301L) above, with L301P counted along it
Description: Full-length Tau inhibition of aggregation assay by ThT (seeded with AD brain PHF). It is filed as biochemical. Conditions: 4 μM monomeric flTau + AD brain PHF 1:200, 72 h at 37° C. The method, then:
Full-Length Tau (fIT) Inhibiton of Aggregation Assay by ThT
The isoform of human Tau (2N4R; 441 amino acids) was purchased from Biotechne (USA). The protein was expressed in bacteria E coli, purified and concentrated in PBS to a final concentration of 50 μM.
To induce Tau aggregation, 4 μM of monomeric flTau was incubated for 72 hours at 37° C. under agitation cycles consisting of both orbital shaking and mixing function using the Hula Mixer (Life Technologies) with Tau paired-helical filaments (PHF) enriched from the post-mortem brain of one Alzheimer's disease (AD) patient obtained from an external source (Tissue Solutions) diluted 1:200. The enrichment procedure was modified from Jicha et al, 1997 (Journal of Neuroscience Research 48:128-132 (1997)) and Rostagno and Ghiso, 2009 (Current protocols in cell biology (2009), Chapter 3, Unit 3.33 3.33.1-33). […]
To test the capability of compounds of this invention to inhibit Tau aggregation, serial dilution of compounds in DMSO were added to the monomeric flTau/PHF mix prior incubation. […] Fluorescence was measured in monoplicate on a Tecan reader Spark using filter (excitation at 448 nm/BW 7 nm, emission at 485 nm/BW 20 nm). A dose response type of curve was obtained out to two independent experiments each with technical duplicates and the IC50 was calculated using GraphPad Prism 7.03.

T1 sequence (P10636 1-441 isoform P10636-8): as the sequence (P10636 1-441 isoform P10636-8 P301L) above, with L301P counted along it

Regarding `CN(C)c1nc2ccc(N3CCc4c(n(C)c5ccc(F)cc45)C3)cc2o1` [Example 12], in assay [1], the EC50 is under 10 µM. Further, the “% Reduction of intracellular Tau aggregation” value (from here on “% Reduction”) in assay [2] was “+ (+ % 25 < x < 10)”.
For `COc1ccc2c(c1)c1c(n2C)CN(c2ccc3oc(N(C)C)nc3c2)CC1` [Example 21], the EC50 in assay [3] is under 10 µM. In assay [2], the “% Reduction” value is reported as “+ (+ % 25 < x < 10)”.
In turn, `c1ccc2c3c([nH]c2c1)CN(c1ccc2nc(N4CCOCC4)sc2c1)CC3` [Example 38] gave an EC50 in assay [3] of under 10 µM. Further, in assay [2], the “% Reduction” value is recorded as “+ (+ % 25 < x < 10)”.
On to `c1ccc2c3c([nH]c2c1)CN(c1ccc(N2CCOCC2)cn1)CC3` [Example 43], for which the EC50 in assay [3] was under 10 µM. In addition, the “% Reduction” value in assay [2] is “++ (++ % 50 < x < 25)”.
In assay [3], `c1ccc2c3c([nH]c2c1)CN(c1ccc(N2CCOCC2)nc1)CC3` [Example 44] yielded an EC50 of under 10 µM. The “% Reduction” value in assay [2] is on record as “+++ (+++ % > 50)”. For the same molecule, the half-maximal inhibitory concentration (IC50) in assay [4] is 390 nM.
As to `Cn1c2c(c3ccccc31)CCN(c1ccc(N3CCOCC3)cn1)C2` [Example 45], the concentration giving a half-maximal response (EC50) in assay [3] is under 10 µM. Also, in assay [2], the “% Reduction” value is recorded as “++ (++ % 50 < x < 25)”.
As to `Cn1c2c(c3ccccc31)CCN(c1ccc(N3CCOCC3)nc1)C2` [Example 46], the EC50 in assay [3] was under 10 µM. Also, in assay [2], the “% Reduction” value is listed as “++ (++ % 50 < x < 25)”. Further, the IC50 in assay [4] came to 1200 nM.

The values above are taken from patent US20210267989A1, “Novel Compounds for the Treatment, Alleviation or Prevention of Disorders Associated with Tau Aggregates” (AC Immune SA, priority 2018, published 2021).
